Measurements reported in the NIST ThermoML archive (doi:10.1016/j.fluid.2012.01.014).

Test: cn = amount concentration of the nth substance listed, in mol/dm3
Conditions: Ring tensiometer

O [water] + CCCCCCCCCCCCCCCC[N+](C)(C)C.[Br-]
c2 = 0
Conditions | surface tension liquid-gas [mN/m]
293 K | 72.8
303 K | 71.2
313 K | 69.6

O [water] + CCCCCCCCCCCC[N+](C)(C)Cc1ccccc1.[Br-]
c2 = 0
Conditions | surface tension liquid-gas [mN/m]
293 K | 72.8
303 K | 71.2
313 K | 69.6

CCCCCCCCCCCCCCCC[n+]1ccccc1.[Br-] [1-hexadecylpyridinium bromide] + O
surface tension liquid-gas [mN/m]
Conditions | 293 K | 303 K | 313 K
c1 = 1e-08 | 72.8 | 71.2 | 69.6
c1 = 5.01e-08 | 72.8 | 71.19 | 69.59
c1 = 1e-07 | 72.75 | 71.18 | 69.57
c1 = 5.01e-07 | 72.7 | 71.13 | 69.54
c1 = 1e-06 | 72.6 | 71.07 | 69.49
c1 = 5.01e-06 | 71.7 | 70.56 | 69.04
c1 = 1e-05 | 71.1 | 69.97 | 68.52
c1 = 2e-05 | 69.8 | 68.91 | 67.58
c1 = 5.01e-05 | 67.4 | 66.38 | 65.26
c1 = 0.0001 | 63 | 61.8 | 60.65
c1 = 0.0002 | 54.6 | 53.41 | 53.01
c1 = 0.000398 | 45.5 | 44.73 | 44.56
c1 = 0.000631 | 44.8 | 44.03 | 43.87
c1 = 0.000794 | 45.3 | 44.04 | 43.86
c1 = 0.001 | 44.4 | 43.92 | 43.75
c1 = 0.002 | 44 | 43.81 | 43.68
c1 = 0.00398 | 44.5 | 43.79 | 43.64
c1 = 0.00603 | 44.1 | 43.62 | 43.53
c1 = 0.00794 | 43.2 | 42.83 | 42.74
c1 = 0.01 | 43.2 | 42.75 | 42.65
c1 = 0.0302 | 39.4 | 38.89 | 38.9
c1 = 0.0603 | 38.8 | 38.02 | 37.95

CCCCCCCCCCCCOS(=O)(=O)[O-].[Na+] [sodium dodecyl sulfate] + O
surface tension liquid-gas [mN/m]
Conditions | 293 K | 303 K | 313 K
c1 = 1e-08 | 72.8 | 71.2 | 69.6
c1 = 1e-07 | 72.9 | 71.19 | 69.6
c1 = 1e-06 | 72.79 | 71.17 | 69.58
c1 = 3.98e-06 | 72.78 | 71.15 | 69.56
c1 = 7.94e-06 | 72.76 | 71.14 | 69.53
c1 = 1e-05 | 72.75 | 71 | 69.51
c1 = 5.01e-05 | 72.69 | 70.81 | 69.48
c1 = 6.31e-05 | 72.46 | 70.59 | 69.27
c1 = 0.0001 | 72.24 | 70.01 | 69.05
c1 = 0.0002 | 71.62 | 69.29 | 67.85
c1 = 0.000631 | 68.1 | 66.62 | 65.14
c1 = 0.000794 | 66.25 | 65.21 | 64.01
c1 = 0.001 | 64.32 | 63.87 | 62.73
c1 = 0.002 | 57.43 | 57.02 | 55.94
c1 = 0.00398 | 49.72 | 49.52 | 48.45
c1 = 0.00631 | 43.37 | 42.98 | 41.7
c1 = 0.00794 | 38.88 | 38.34 | 36.91
c1 = 0.00832 | 38.4 | 38.21 | 36.42
c1 = 0.01 | 38.4 | 38.21 | 36.42

O [water] + CCCCCCCCCCCCCC[N+](C)(C)C.[Br-]
c2 = 0
Conditions | surface tension liquid-gas [mN/m]
293 K | 72.8
313 K | 69.6

O [water] + CCCCCCCCCCCC[N+](C)(C)CC.[Br-]
c2 = 0
Conditions | surface tension liquid-gas [mN/m]
293 K | 72.8
303 K | 71.2
313 K | 69.6

O [water] + CCCCCCCCCCCCCCCCS(=O)(=O)[O-].[Na+]
c2 = 0
Conditions | surface tension liquid-gas [mN/m]
293 K | 72.8
303 K | 71.2
313 K | 69.6

O [water] + CCCCCCCCCCCCN(C)CC(=O)[O-].[Na+]
c2 = 0
Conditions | surface tension liquid-gas [mN/m]
293 K | 72.8
303 K | 71.2
313 K | 69.6

CCCCCCCCCCCCCCCCS(=O)(=O)[O-].[Na+] [sodium hexadecylsulfonate] + O
surface tension liquid-gas [mN/m]
Conditions | 293 K | 303 K | 313 K
c1 = 1e-08 | 72.8 | 71.2 | 69.6
c1 = 1e-07 | 72.8 | 71.19 | 69.6
c1 = 1e-06 | 72.7 | 71.15 | 69.55
c1 = 3.98e-06 | 72.6 | 70.99 | 69.42
c1 = 5.01e-06 | 72.5 | 70.89 | 69.31
c1 = 6.03e-06 | 72.4 | 70.77 | 69.21
c1 = 7.94e-06 | 72.3 | 70.69 | 69.09
c1 = 1e-05 | 72.2 | 70.54 | 68.99
c1 = 2e-05 | 71.6 | 69.98 | 68.41
c1 = 6.03e-05 | 69 | 68.49 | 67.04
c1 = 0.0001 | 66.2 | 65.54 | 64.15
c1 = 0.0002 | 59.15 | 58.94 | 58.84
c1 = 0.000603 | 43.23 | 43.17 | 43.12
c1 = 0.000741 | 40.28 | 40.07 | 39.97
c1 = 0.000891 | – | 38.59 | 38.55

CCCCCCCCCCCCCCCC[N+](C)(C)C.[Br-] [N,N,N-trimethyl-1-hexadecanaminium bromide] + O
surface tension liquid-gas [mN/m]
Conditions | 293 K | 303 K | 313 K
c1 = 1e-08 | 72.79 | 71.2 | 69.6
c1 = 1e-07 | 72.78 | 71.19 | 69.59
c1 = 5.01e-07 | 72.73 | 71.16 | 69.56
c1 = 1e-06 | 72.66 | 71.11 | 69.52
c1 = 2e-06 | 72.54 | 71.03 | 69.45
c1 = 3.98e-06 | 72.31 | 70.86 | 69.3
c1 = 6.31e-06 | 72.1 | 70.69 | 69.16
c1 = 7.94e-06 | 71.91 | 70.53 | 69.02
c1 = 1e-05 | 71.73 | 70.37 | 68.88
c1 = 2e-05 | 70.97 | 69.62 | 68.22
c1 = 3.02e-05 | 70.31 | 68.93 | 67.61
c1 = 3.98e-05 | 69.72 | 68.3 | 67.04
c1 = 5.01e-05 | 69.2 | 67.72 | 66.51
c1 = 6.03e-05 | 68.81 | 67.18 | 66.01
c1 = 7.08e-05 | 68.48 | 66.67 | 65.54
c1 = 7.94e-05 | 68.06 | 66.2 | 65.1
c1 = 9.12e-05 | 67.15 | 65.75 | 64.68
c1 = 0.0001 | 66.41 | 65.32 | 64.28
c1 = 0.0002 | 60.86 | 60.52 | 59.45
c1 = 0.000302 | 54.74 | 54.35 | 53.95
c1 = 0.000398 | 50.39 | 50.02 | 49.72
c1 = 0.000501 | 47.02 | 46.83 | 46.15
c1 = 0.000603 | 44.27 | 44.12 | 43.53
c1 = 0.000708 | 41.94 | 41.82 | 41.22
c1 = 0.000794 | 39.92 | 39.75 | 39
c1 = 0.000891 | 38.15 | 38.01 | 37.25
c1 = 0.000912 | 37.9 | 37.8 | 37
c1 = 0.001 | 37.9 | 37.2 | 36.4
c1 = 0.002 | 37.8 | 37.14 | 36.4

CCCCCCCCCCCCN(C)CC(=O)[O-].[Na+] [sodium laurylsarcosinate] + O
surface tension liquid-gas [mN/m]
Conditions | 293 K | 303 K | 313 K
c1 = 1e-07 | 72.4 | 71.19 | 69.59
c1 = 5.01e-07 | 72.2 | 71.15 | 69.56
c1 = 1e-06 | 72 | 71.1 | 69.52
c1 = 5.01e-06 | 71.6 | 70.72 | 69.2
c1 = 1e-05 | 71.4 | 70.28 | 68.83
c1 = 5.01e-05 | 69 | 67.57 | 66.49
c1 = 0.0001 | 65.5 | 65.33 | 64.45
c1 = 0.000501 | 48.6 | 48.46 | 48.32
c1 = 0.000631 | 46.3 | 46.1 | 46
c1 = 0.000708 | 44.9 | 44.03 | 43.82
c1 = 0.000794 | 43.6 | 42.91 | 42.71
c1 = 0.000891 | 42.3 | 41.85 | 41.15
c1 = 0.001 | 41.1 | 40.33 | 39.51
c1 = 0.002 | 32.9 | 32.39 | 31.83
c1 = 0.00316 | 28.3 | 28 | 27.5
c1 = 0.00398 | 26.9 | 26.65 | 26.12
c1 = 0.00501 | 26.5 | 26.45 | 25.48
c1 = 0.01 | 26.5 | 26.45 | 25.42

CCCCCCCCCCCCCC[N+](C)(C)C.[Br-] [tetradecyltrimethylammonium bromide] + O
surface tension liquid-gas [mN/m]
Conditions | 293 K | 313 K
c1 = 1e-07 | 72.4 | 69.59
c1 = 5.01e-07 | 72.3 | 69.54
c1 = 1e-06 | 72.2 | 69.48
c1 = 5.01e-06 | 71.7 | 69.03
c1 = 1e-05 | 71.6 | 68.49
c1 = 5.01e-05 | 70.8 | 67.49
c1 = 0.0001 | 69.9 | 66.58
c1 = 0.0002 | 66.7 | 63.61
c1 = 0.000501 | 59.1 | 58.43
c1 = 0.000631 | 56.1 | 55.41
c1 = 0.000708 | 54.6 | 53.85
c1 = 0.000794 | 53.7 | 52.61
c1 = 0.000891 | 52.7 | 51.54
c1 = 0.001 | 51.9 | 50.21
c1 = 0.002 | 43.7 | 42.65
c1 = 0.00316 | 36.7 | 36.05
c1 = 0.00398 | 36.3 | 35.38
c1 = 0.00501 | 36.3 | 35.38
c1 = 0.00708 | 36.3 | 35.38
c1 = 0.01 | 36.3 | 35.38
